Test results taken from patent US10654838B2, “Aminopyridine compounds useful as inhibitors of protein prenylation” (INSTITUT NATIONAL DE LA SANTE ET DE LA RECHERCHE MEDICALE …, priority 2014, dated 2020).

Columns and labels:
HGPS MSCs [1] = experiment: ATP measurement (CellTiter Glo); type: cell-based, human; conditions: 48 h
Experimental: HGPS and control MSC were seeded in a 96 well plates (3917, Corning) (5000 cells/well) and treated with the different drugs. After 48 hours of treatment in unique dose, ATP content was measured using CellTiter Glo® (Promega) accordingly to the manufacturer recommendations. Luminescence was measured with an Analyst GT multimode plate reader (Molecular devices). In parallel, Hoechst 33342 stained nuclei were counted in each well thanks to an automated microscope. The results exploited are given in the ratio between ATP measurement and the number of nuclei counted.

[2] = system: lamin A and progerin mRNA expression; experiment: Quantitative PCR of lamin A and progerin mRNA; type: cell-based, human; conditions: HGPS MSCs, 48 h, normalized on DMSO 0.1%
Experimental: Total RNA was isolated using RNeasy Mini extraction kit (Qiagen, Courtaboeuf, France) according to the manufacturer's protocol. An on-col DNase I digestion was performed to avoid genomic DNA amplification. RNA level and quality were checked using the Nanodrop technology. A total of 500 ng of RNA was used for reverse transcription using the Superscript III reverse transcription kit (Invitrogen). Q-PCR analysis was performed using a ABI 7900 system (Applied biosystem) and TaqMan gene expression Master Mix (Roche) following the manufacturer's instructions. Quantification of gene expression was based on the DeltaCt Method and normalized on 18S expression (Assay HS_99999901_S1). PCR primers were previously described by S. Rodriguez and colleagues (Rodriguez S et al., 2009, Eur J Hum Genet, VOL 17(7): 928-37). Primer sequences were lamin A (exons 11/12), 5′-[…]-3′ (SEQ N^o 1) and 5′-AGTTCTGGGGGCTCTGGGT-3′ (SEQ N^o 2); lamin C (exons 9/10), 5′-[…]-3′ (SEQ N^o 3) and 5′-CGGCGGCTACCACTCAC-3′ (SEQ ID N^o 4) and Progerin
(exons 11/12), 5′-ACTGCAGCAGCTCGGGG-3′ (SEQ N^o 5) and 5′-TCTGGGGGCTCTGGGC-3′ (SEQ ID N^o 6).
Taqman MGB probe sequences were lamin A (exon 11), 5′-ACTCGCAGCTACCG-3′ (SEQ N^o 7); lamin C (exon10), 5′-ATGCGCAAGCTGGTG-3′ (SEQ ID N^o 8) and Progerin (exon 11), 5′-CGCTGAGTACAACCT-3′ (SEQ ID N^o 9). […]

prelamin A = experiment: Western immunoblotting of prelamin A; type: cell-based, human; conditions: HGPS MSCs, optimal concentration
Experimental: Whole-cell lysates of MSC were collected, separated by SDS-PAGE, and transferred onto PVPF membrane by liquid transfer method. Blots were blocked in 10% skim milk (Bio-Rad) in tween 0.1% tris-buffered saline (TTBS) 1× one hour at room temperature. The primary antibodies used were a mouse anti-lamins A/C 1:200 (Millipore, JOL2), a rabbit anti-prelamin A 1/100 (ANTOO45, Diatheva) and a β-actin 1/200000 (Sigma). Membranes were incubated during the night at 4° C. Antigen-antibody binding was detected using horseradish peroxidaseconjugated species-specific secondary antibodies (GE-Healthcare, Little Chalfont, UK) followed by enhanced chemiluminescence Western blotting detection reagents (Perkin-Elmer, Waltham, USA).

HGPS MSCs [3] = experiment: Nuclear shape abnormalities (lamin A/C immunostaining); type: cell-based, human; conditions: 48 h, lamin A/C staining
Experimental: (§1) In the 4-steps protocol, cells were fixed in 4% paraformaldehyde (15 minutes, room temperature) before permeabilization and blocking in PBS supplemented with 0.1% triton X-100 and 1% BSA (Sigma-Aldrich, St. Louis, USA). Primary antibodies were incubated one hour at room temperature in blocking buffer. Antibodies included mouse anti-lamins A/C (clone JOL2, Millipore, Billerica, USA), rabbit anti-prelamin A (ANTOO45, Diatheva) and anti-Ki67 (clone Ki-S5, MAB4190, Millipore, Billerica, USA). Cells were stained with the species-specific fluorophore-conjugated secondary antibody (Invitrogen) (one hour, room temperature) and nuclei were visualized with Hoechst 33342.

HGPS MSCs [4] = experiment: Osteogenic differentiation (alkaline phosphatase activity); type: cell-based, human; conditions: 7 days of osteogenic differentiation
Experimental: MSC were seeded at 600 cells per well in 384 well plate in MSC culture medium and treated as previously described. After 72 hours, MSC medium was replaced by STEMPRO osteogenic induction medium (Invitrogen) in presence or not of the different drugs. After 7 days of treatment, cells were fixed with ethanol 95% and stained by adding either a colorimetric substrate of the alkaline phosphatase, the 5-Bromo-4-chloro-3-indolyl phosphate/Nitro blue tetrazolium (NBT) (Sigma-Aldrich) or a chromogenic substrate of this enzyme (absorbance at 405 nm), the p-Nitrophenyl Phosphate (pNPP) (Pierce Biotechnology).

HDJ2 = experiment: Western blot analysis of HDJ2 farnesylation; type: cell-based, human
HGPS MSCs [5] = experiment: Cell proliferation (Ki-67 immunostaining); type: cell-based, human; conditions: 48 h
Experimental: as §1

HMGCR = target: T1, HMGCR (Homo sapiens, UniProt P04035); experiment: HMGCR colorimetric activity assay; type: biochemical
T1 construct: oxidation of NADPH by the catalytic subunit of HMGCR in the presence of the substrate HMG CoA; purchased Sigma-Aldrich
T1 sequence (P04035 340-888 limits assumed): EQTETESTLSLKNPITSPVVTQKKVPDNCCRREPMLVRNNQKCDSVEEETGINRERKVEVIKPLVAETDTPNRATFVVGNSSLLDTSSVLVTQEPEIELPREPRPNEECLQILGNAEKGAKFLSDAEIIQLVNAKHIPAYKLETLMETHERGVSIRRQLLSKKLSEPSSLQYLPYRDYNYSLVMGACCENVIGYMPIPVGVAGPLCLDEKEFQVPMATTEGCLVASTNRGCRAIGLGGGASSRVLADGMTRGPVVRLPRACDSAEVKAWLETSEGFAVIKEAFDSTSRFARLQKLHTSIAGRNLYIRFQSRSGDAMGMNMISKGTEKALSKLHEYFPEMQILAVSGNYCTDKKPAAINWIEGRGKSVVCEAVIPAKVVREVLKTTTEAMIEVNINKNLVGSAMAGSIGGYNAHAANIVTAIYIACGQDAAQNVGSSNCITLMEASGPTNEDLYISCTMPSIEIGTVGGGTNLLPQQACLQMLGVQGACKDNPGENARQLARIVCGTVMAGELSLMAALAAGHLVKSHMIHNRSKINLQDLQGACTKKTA
Experimental: HMGCR activity was measured using GCoA Reductase Assay Kit (Sigma-Aldrich) according to the manufacturer's protocol. The assay is based on the spectrophotometric measurement of the decrease in absorbance at 340 nm, which represents the oxidation of NADPH by the catalytic subunit of HMGCR in the presence of the substrate HMG CoA.

FT = target: T2, FT (Homo sapiens, UniProt P49354+P49356); experiment: FT activity assay (Farnesyltransferase [3H] SPA); type: biochemical; conditions: concentration inducing 50% of the maximum inhibiting effect of the compound
T2 construct: Reactions were started by adding 40 μL of treated or untreated cell lysate; endogenous in cells; host or cells: HGPS MSCs (cell lysate)
Experimental: (§2) Cell pellet of HGPS MSCs were resuspended in 25 mM Tris-HCl pH 7.4, 1 mM DTT, 1 mM MgCl2, 1 EDTA, 1 mM PMSF and centrifuged at 10,000×g for 10 min at 4° C. Protein content was determined using Lowry's method. Aliquots of cell lysate containing 100 μg of total proteins were incubated with tested substances at 37° C. for 30 min.
FT activity was determined by Famesyltransferase [3H] SPA enzyme assay (Amersham Life Science, Buckinghamshire, England). Briefly, FT activity was assayed in 20 μl of assay buffer containing 50 mmol/L Hepes, 30 mmol/L MgCl2, 20 mmol/L KCl and 5 mmol/L dithiothreitol, 20 μl of [3H]-FPP (12 pmol) and 20 μl of biotin lamin B. Reactions were started by adding 40 μL of treated or untreated cell lysate and incubated for 1 hour at 37° C. Reactions were stopped by the addition of 150 μL of stop reagent containing SPA bead and counted in a scintillation counter. FT activity was expressed as pmoles of incorporated [3H]-FPP into biotin lamin-B peptide per minute per milligram of total proteins (pmol/min/mg prot). Parallel samples were assayed to evaluate the total and the nonspecific radioactivity. In all experiments enzyme assays were carried out in triplicate.

HGPS MSCs [6] = experiment: Live cell imaging (cell density); type: cell-based, human; conditions: 7 days
Experimental: HGPS MSCs were seeded at 2500 cells per well in 96-well plates and cultivated during 7 days in presence of the drugs. Cell density was monitored using an IncuCyte ZOOM microscope (Essen Bioscience). Each value corresponds to the mean of cell densities of four pictures taken in three independent wells.

FPPS [7] = target: T3, FPPS (Homo sapiens, UniProt P14324); experiment: Surface plasmon resonance on immobilized FPPS; type: binding
T3 sequence (P14324 1-419): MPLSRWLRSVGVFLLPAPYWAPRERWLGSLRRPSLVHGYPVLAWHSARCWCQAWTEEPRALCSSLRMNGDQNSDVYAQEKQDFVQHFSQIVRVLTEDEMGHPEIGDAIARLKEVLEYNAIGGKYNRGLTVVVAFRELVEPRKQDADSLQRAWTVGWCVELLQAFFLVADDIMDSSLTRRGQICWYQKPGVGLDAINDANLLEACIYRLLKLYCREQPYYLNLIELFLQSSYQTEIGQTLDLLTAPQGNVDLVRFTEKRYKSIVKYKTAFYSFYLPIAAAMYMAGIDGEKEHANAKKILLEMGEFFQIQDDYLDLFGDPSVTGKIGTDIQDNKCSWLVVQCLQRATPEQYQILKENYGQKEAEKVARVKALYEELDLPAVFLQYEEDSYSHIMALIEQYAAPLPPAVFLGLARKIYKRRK
Experimental: Surface plasmon resonance (SPR) was measured using a BIAcore 3000 instrument at 25° C. FPPS (2800 RU) was immobilized on flow cells of a CM5-chip. The running buffer was HBSEP pH 7.4 (20 mM Hepes, 150 mM NaCl, and 0.005% P20). Regeneration was performed with 10 mM glycine, pH 3.0. […] Data were evaluated using Scrubber2 (Biologic software) and BIAeval software (BIAcore).

FPPS [8] = target: T3, FPPS; experiment: FPPS activity assay; type: biochemical; design: endogenous in cells; host or cells: HGPS MSCs (cell lysate); conditions: concentration inducing 50% of the maximum inhibiting effect of the compound
Experimental: as §2
FPPS assay was carried out with some modifications of the procedure of Krisans et al. (Krisans et al., 1994, The Journal of biological chemistry VOL. 269: 14165-14169) and described by Gupta et al. (Gupta et al., 1999, Eur J Med Chem, VOL. 43: 2751-2767). Briefly, FPPS was assayed in 150 μL containing 25 mmol/L Hepes, pH=7, 2 mmol/L MgCl2, 1 mmol/L dithiothreitol, 5 mmol/L KF, 1% A noctyl-β-glucopyranoside, 3.3 μmol/L [4-14C] IPP (18 Ci/mmol), 3 μmol/L unlabeled IPP and 20 μmol/L geranyl diphosphate. Reactions were started by adding 40 μL of treated or untreated cell lysate and incubated for 45 min at 37° C. Reactions were stopped by the addition of 150 μL 2.5 mol/L HCl in 80% ethanol containing 100 μg/mL farnesol as a carrier. The samples were hydrolyzed for 30 min at 37° C. to convert the FPP to farnesol and neutralized by the addition of 150 μL of 10% NaOH. The reaction product (farnesol) was extracted into 1 mL of N-hexane and an aliquot (200 μL) of the organic phase was used for radioactivity counting. Parallel samples were assayed to evaluate the total and the nonspecific radioactivity. In all experiments, enzyme assays were carried out in triplicate.

Cc1cccc(N(C)c2cc(N3CCN(C(=O)Cc4c(-c5ccccc5)[nH]c5ccccc45)CC3)ncn2)c1 [Di-AP1, 1-{4-[6-(Methyl-m-tolyl-amino)-pyrimidin-4-yl]-piperazin-1-yl}-2-(2-phenyl-1H-indol-3-yl)-ethanone]
ATP content (energetic metabolism) (HGPS MSCs [1]): increased ATP content | lamin A and progerin mRNA expression [2]: increased | prelamin A level (Western blot) (prelamin A): increased | rescue of nuclear shape abnormalities (HGPS MSCs [3]): not efficient | rescue of premature osteogenic differentiation (alkaline phosphatase activity) (HGPS MSCs [4]): not significantly different to those observed following FTI treatment | unfarnesylated form of HDJ2 (HDJ2): increase of the unfarnesylated form of the protein | number of Ki-67 positive cells (HGPS MSCs [5]): up to 65%

N#CC(c1ccncc1)c1cc(N2CCN(C(=O)c3cccs3)CC2)ncn1 (centres unmarked) [Mono-AP2, Pyridin-4-yl-{6-[4-(thiophene-2-carbonyl)-piperazin-1-yl]-pyrimidin-4-yl}-acetonitrile]
prelamin A level (Western blot) (prelamin A): increased | IC50 (μM) HMGCR (HMGCR): No inhibition | rescue of nuclear shape abnormalities (HGPS MSCs [3]): restoring HGPS MSCs nuclear shape defects at levels not significantly different from the FTI tipifarnib | unfarnesylated form of HDJ2 (HDJ2): increase of the unfarnesylated form of the protein | IC50 (FT): 9.32 µM | cytostatic effect in long term live imaging cultures (HGPS MSCs [6]): less cytostatic than the FTI tipifarnib | direct interaction with FPPS (SPR), in words (FPPS [7]): confirmed the direct interactions | Ka (1/M), association constant (FPPS [7]; SPR, BIAcore 3000, 25° C.): 5040 M⁻¹ | Kd (FPPS [7]; SPR, BIAcore 3000, 25° C., read-out: Kd (M), equilibrium dissociation constant): 0.0002 M | IC50 (FPPS [8]): 1.82 µM
